# Source: BindingDB's records for doi:10.1016/S0045-2068(03)00026-9 (Keio University, 2003)
# Biological target: T1, Polyphenol oxidase 2 (Agaricus bisporus, UniProt O42713)
# T1 sequence (O42713 whole entry): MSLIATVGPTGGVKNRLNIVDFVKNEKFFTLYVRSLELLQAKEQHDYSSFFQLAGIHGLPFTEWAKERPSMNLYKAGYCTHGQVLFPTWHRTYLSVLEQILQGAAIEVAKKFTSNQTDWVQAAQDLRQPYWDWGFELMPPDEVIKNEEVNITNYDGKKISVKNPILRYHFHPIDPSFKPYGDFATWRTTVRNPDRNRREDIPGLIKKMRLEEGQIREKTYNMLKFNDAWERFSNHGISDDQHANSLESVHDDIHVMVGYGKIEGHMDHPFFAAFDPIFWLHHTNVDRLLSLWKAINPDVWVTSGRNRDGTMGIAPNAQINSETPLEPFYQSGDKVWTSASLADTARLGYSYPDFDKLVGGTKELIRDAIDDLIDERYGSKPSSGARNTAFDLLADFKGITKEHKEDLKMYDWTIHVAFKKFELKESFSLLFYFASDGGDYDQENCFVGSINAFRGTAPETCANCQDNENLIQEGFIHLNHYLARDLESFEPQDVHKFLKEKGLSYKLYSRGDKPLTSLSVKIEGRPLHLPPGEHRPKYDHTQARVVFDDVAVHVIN
# Experiment: Spectrophotometic Assay
# Conditions: pH 6.8; 30 °C
# Text: The IC50 values were obtained from a spectrophotometric assay.
row,Compound,IC50 [µM]
1,"O=NN(O)Cc1ccccc1O [N-nitrosohydroxylamine N-substituted, 4]",19.2
2,"O=NN(O)Cc1ccc(O)cc1O [N-nitrosohydroxylamine N-substituted, 7]",11.6
3,"COc1ccc(CN(O)N=O)cc1 [N-nitrosohydroxylamine N-substituted, 10]",9.7
4,"CC(C)(C)c1ccc(CN(O)N=O)cc1 [N-nitrosohydroxylamine N-substituted, 11]",15.8
5,"O=NN(O)Cc1cc(O)ccc1O [N-nitrosohydroxylamine N-substituted, 8]",23.8
6,"O=NN(O)Cc1ccc(O)cc1 [N-nitrosohydroxylamine N-substituted, 6]",13.7
7,"O=NN(O)Cc1cccc(O)c1 [N-nitrosohydroxylamine N-substituted, 5]",20.3
8,"O=NN(O)Cc1ccc(Cl)cc1 [N-nitrosohydroxylamine N-substituted, 9]",13.1
